Data on six compounds can be found in patent US7521439B2, “Glucocorticoid receptor ligands for the treatment of metabolic disorders” (Karo Bio AB, priority 2002, dated 2009).

Each structure is given as a SMILES string. Like-named read-outs stand apart in the source and are kept apart here.

Data set [1] deals with GR-mediated responses. Put plainly: Rat prednisolone challenge model (hepatic TAT, hepatic glycogen, blood lymphocytes). The note with it: for inhibition at 100 mg/kg: Rattus norvegicus, Lymphocyte, po, 100 mpk orally in rats, prednisolone challenge. The format is in vivo. An excerpt:
The analysis of both in vivo activity and liver selectivity may be accomplished using a single pharmacology study, involving a prednisolone challenge administered to rats.
Systemic glucocorticoid activity leads to an anti-inflammatory response, which is the result of a GR-linked suppression of lymphocytic activity.
Rat Prednisolone Challenge Model for Evaluation of Liver-Targeted Glucocorticoid Receptor Antagonists
Six hours following the prednisolone challenge, rats are euthanized with CO2, and bled via cardiac puncture for evaluation of blood lymphocytes and plasma drug levels. 7 mm liver biopsy punches are harvested for evaluation of tyrosine aminotransferase (TAT), hepatic glycogen and GR antagonist levels. Additional liver tissue, retroperitoneal fat, skeletal muscle, kidney and skin from an ear biopsy are also removed for isolation an evaluation of mRNA.

Data set [2] has as its target T1, Human glucocorticoid receptors (hGR) (Homo sapiens, UniProt P04150).
T1 construct: made in house; host or cells: Sf9 insect cells, baculovirus (BAC-TO-BAC)
T1 sequence (P04150 1-777): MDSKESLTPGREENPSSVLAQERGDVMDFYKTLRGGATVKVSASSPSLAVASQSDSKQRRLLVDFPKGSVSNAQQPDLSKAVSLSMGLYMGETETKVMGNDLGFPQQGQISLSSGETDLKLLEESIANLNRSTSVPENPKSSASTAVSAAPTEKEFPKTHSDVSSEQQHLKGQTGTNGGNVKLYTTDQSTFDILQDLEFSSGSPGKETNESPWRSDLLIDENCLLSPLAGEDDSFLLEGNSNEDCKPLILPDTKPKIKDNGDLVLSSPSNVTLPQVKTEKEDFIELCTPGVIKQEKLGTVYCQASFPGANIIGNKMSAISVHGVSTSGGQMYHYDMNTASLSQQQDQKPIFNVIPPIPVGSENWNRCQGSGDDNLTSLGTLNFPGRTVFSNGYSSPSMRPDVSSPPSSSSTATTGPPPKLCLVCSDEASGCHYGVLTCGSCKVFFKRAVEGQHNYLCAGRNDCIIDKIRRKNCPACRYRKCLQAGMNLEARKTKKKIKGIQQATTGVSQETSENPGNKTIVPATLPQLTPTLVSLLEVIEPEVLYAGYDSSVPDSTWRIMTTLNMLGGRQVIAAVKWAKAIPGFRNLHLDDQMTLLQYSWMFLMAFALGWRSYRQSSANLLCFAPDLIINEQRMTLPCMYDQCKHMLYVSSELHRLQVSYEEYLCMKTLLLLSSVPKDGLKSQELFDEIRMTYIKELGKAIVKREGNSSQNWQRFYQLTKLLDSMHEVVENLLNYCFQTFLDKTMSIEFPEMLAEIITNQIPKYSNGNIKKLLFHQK
The experiment in a line: Radioligand filter binding assay, displacement of 3(H)-dexamethasone from human glucocorticoid receptor. An excerpt:
Methods for Radioligand Binding Studies with Human Glucocorticoid and Progesterone Receptor Cytosol
Dexamethasone hereafter referred to as dex was purchased from SIGMA. […] Human glucocorticoid receptors were extracted from Sf9 cells infected with a recombinant baculovirus transfer vector containing the cloned hGR genes. Recombinant baculovirus was generated utilizing the BAC-TO-BAC expression system (Life Technologies) in accordance to instruction from the supplier. The hGR coding sequences were cloned into a baculovirus transfer vector by standard techniques. The recombinant baculoviruses expressing hGR were amplified and used to infect Sf9 cells. Infected cells were harvested 48 hrs post infection. […] The concentration of hGR in the extract was measured as specific ^3(H)-dex binding with the G25-assay as described in J. Steroid Biochem. Molec. […] The extract was aliquoted and stored at −70° C.
The filter binding assay: Dilution series of the test compounds and dexamethasone as reference were made from 10 mM (1 mM dex) stock solutions in DMSO. 10 μl of the dilutions was added in duplicates to the wells. The cell extracts were diluted 10 fold in EPMo+MTG buffer (1 mM EDTA, HPO4 20 mM (pH8), 6 mM MTG). […] 110μl of the diluted ^3(H)-dex were added to the wells. The final concentration of hGR in the experiment was estimated to 1 nM. All preparations were made in […] on ice and with +4° C. temperated buffers. The plates were incubated overnight at +4° C. (15-20 hrs.).
The incubation was stopped by filtration through GF/B filter on the Tomtec Cellharvester. The filtration on the Tomtec Cellharvester was programmed as follows: 1) Preparation before filtration with EP buffer (1 mM EDTA 20 mM HPO4 (pH8)) 2×(Wash/Asp 0.6 sec., Asp 0.5 sec.); 2) Prewet of GF/B filter with EP+PEI buffer (EP buffer, 0.3% Polyethylenimine) (Asp 0.8 sec.); 3) Filtration/harvesting of the 96-well incubation plate 3×(Wash/Asp 0.6 sec., Asp 0.5 sec.). The GF/B filter was dried for at least 1 hr at 65° C. A MeltiLex scintillation wax was melted onto the filter with the Microsealer. The filter was placed in a samplebag, which was thereafter trimmed with scissors to fit the filter cassette. The cassette were placed in the Microbeta and measured for 1 min/position, returning ccpm (corrected counts per minute).
The Microbeta-instrument generates the mean cpm (counts per minute) value/minute and corrects for individual variations between the detectors thus generating corrected cpm values.

The subject of data set [3] is HPA axis. Put plainly: Mouse hypothalamic-pituitary-adrenal (HPA) activation model. The format is in vivo. As to conditions: for circulating level of ACTH / circulating level of corticosterone: oral dose, normal mice (FIG. 3). The text has this: Hypothalamic stimulation triggered by a suppressed systemic glucocorticoid leads to the secretion of adrenocorticotrophic hormone (ACTH) by the pituitary gland. ACTH acts on the adrenal gland to stimulate the production of endogenous glucorticoids like cortisol (in man) or corticosterone (in rodents). […] Analogs like Compound 1 may thus have an improved efficacy and safety profile for the treatment of metabolic diseases like diabetes and obesity.
Mouse Hypothalamic-Pituitary-Adrenal (HPA) Activation Model
Non-fasted CD-1 male mice, weighing approximately 25 g, are dosed with vehicle, RU-486 (30-100 mg/kg), or GR antagonist (30-100 mg/kg) at 0800 hr when corticosterone levels are low. Two hours later, mice are euthanized with CO2, bled by cardiac puncture, and plasma analyzed for corticosterone by mass spectroscopy and for adrenocorticotropic hormone (ACTH) levels by ELISA. Brains and plasma are also removed for analysis of GR antagonist levels.

Data set [4] concerns the target T2, progesterone receptor (PR) (Homo sapiens, UniProt P06401).
T2 sequence (P06401 1-933): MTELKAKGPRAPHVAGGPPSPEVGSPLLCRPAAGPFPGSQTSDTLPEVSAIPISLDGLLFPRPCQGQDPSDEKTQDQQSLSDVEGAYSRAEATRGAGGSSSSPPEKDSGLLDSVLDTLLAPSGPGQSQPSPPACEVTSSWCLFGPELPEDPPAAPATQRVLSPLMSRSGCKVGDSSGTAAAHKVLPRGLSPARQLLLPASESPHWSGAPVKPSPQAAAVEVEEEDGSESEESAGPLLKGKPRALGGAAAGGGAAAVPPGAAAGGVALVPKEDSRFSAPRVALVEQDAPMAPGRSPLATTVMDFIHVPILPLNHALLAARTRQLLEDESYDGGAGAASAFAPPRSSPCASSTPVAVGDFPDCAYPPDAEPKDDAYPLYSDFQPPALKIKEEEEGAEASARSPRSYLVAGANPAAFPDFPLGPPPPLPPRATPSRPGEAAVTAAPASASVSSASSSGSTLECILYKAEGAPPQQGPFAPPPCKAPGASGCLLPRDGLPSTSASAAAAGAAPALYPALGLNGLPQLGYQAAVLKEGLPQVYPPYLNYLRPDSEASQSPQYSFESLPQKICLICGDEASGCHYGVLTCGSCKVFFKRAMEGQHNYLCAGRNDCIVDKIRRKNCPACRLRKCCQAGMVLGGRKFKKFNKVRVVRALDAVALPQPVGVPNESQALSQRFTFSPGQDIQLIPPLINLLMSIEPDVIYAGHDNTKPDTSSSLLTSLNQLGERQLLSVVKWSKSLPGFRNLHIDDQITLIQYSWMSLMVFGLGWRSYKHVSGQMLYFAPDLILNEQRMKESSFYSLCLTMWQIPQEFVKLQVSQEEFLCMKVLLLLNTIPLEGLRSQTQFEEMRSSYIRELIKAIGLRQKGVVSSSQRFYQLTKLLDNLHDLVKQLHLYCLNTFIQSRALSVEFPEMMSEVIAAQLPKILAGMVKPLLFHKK
Put plainly: Radioligand binding assay for progesterone receptor (similar protocol). As to conditions: similar protocol to GR binding. An excerpt:
Methods for Radioligand Binding Studies with Human Glucocorticoid and Progesterone Receptor Cytosol A similar protocol was employed to measure affinity of the compounds of the present invention for progesterone receptor (PR).

Setting [5] is: read-out: Inhibition of GR-mediated responses: Glycogen.
The mark [6] stands for this setting: read-out: Inhibition of GR-mediated responses: Lymphocytes.
Where [7] appears, read: read-out: Inhibition of GR-mediated responses: TAT.
Where [8] appears, read: 30 mpk orally, rat prednisolone challenge.
The mark [9] stands for this setting: rat prednisolone challenge, 100 mpk.
[10] abbreviates: 100 mpk, CD-1 male mice, two hours after dosing.
The mark [11] stands for this setting: 10 mpk prednisolone, normal rats, 7-hour experiment.

`CC#C[C@]1(O)CC[C@H]2[C@@H]3CCC4=CC(=O)CCC4=C3[C@@H](c3ccc(N(C)CCO[C@H]4CC[C@@]5(C)[C@@H](C4)C[C@@H](O)[C@@H]4[C@@H]5C[C@H](O)[C@]5(C)[C@@H]([C@H](C)CCC(=O)O)CC[C@@H]45)cc3)C[C@@]21C` [Example 1, (3β,5β,7α,12α)-7,12-Dihydroxy-3-{2-[{4-[17β-hydroxy-3-oxo-17α-prop-1-ynylestra-4,9-dien-11β-yl]phenyl}(methyl)amino]ethoxy}cholan-24-oic acid]: the inhibition (usually the drop in the measured response relative to a control, in per cent) at 100 mg/kg in data set [1] (setting [5]) was determined as 111%; in data set [1] (setting [6]) it was 35%; in data set [1] (setting [7]), 85%. Also, in data set [1] (rat prednisolone challenge, doses as in Table I), the “selectivity for hepatic GR vs. systemic effects” value was “liver-selective pharmacology”. The IC50 (in general, the midpoint of a concentration-inhibition curve) in data set [2] was determined as 3.6 nM; in data set [4], 8.7 nM. Moreover, the “stimulation of the HPA axis” value in data set [3] (mice, dose similar to RU-38486 (FIG. 3)) is recorded as “fails to stimulate”. The “circulating level of ACTH” value in data set [3] is reported as “lack of change”. The “circulating level of corticosterone” value in data set [3] was “lack of change”.
As to `CC#C[C@]1(O)CC[C@H]2[C@@H]3CCC4=CC(=O)CCC4=C3[C@@H](c3ccc(OCCO[C@H]4CC[C@@]5(C)C(C4)C[C@@H](O)[C@H]4[C@@H]6CC[C@H]([C@H](C)CCC(=O)O)[C@@]6(C)[C@@H](O)C[C@@H]45)c(C)c3)C[C@@]21C` (stereo partly drawn) [Example 2, (3β,7α,12α)-7,12-dihydroxy-3-(2-(4-(17β-hydroxy-3-oxo-17α-prop-1-ynylestra-4,9-dien-11β-yl)-2-methylphenoxy)ethoxy)cholan-24-oic acid], the half-maximal inhibitory concentration (IC50) was found to be 2.8 nM in data set [2] and 2.3 nM in data set [4].
The like results for `CC#C[C@]1(O)CC[C@H]2[C@@H]3CCC4=CC(=O)CCC4=C3[C@@H](c3ccc(N(C)CCO[C@H]4CC[C@@]5(C)[C@@H](C4)C[C@@H](O)[C@@H]4[C@@H]5C[C@H](O)[C@]5(C)[C@@H]([C@H](C)CCC(=O)O)CC[C@@H]45)c(F)c3)C[C@@]21C` [Example 3, (3β,5β,7α,12α)-7,12-dihydroxy-3-{2-[{4-[17β-hydroxy-3-oxo-17α-prop-1-ynylestra-4,9-dien-11β-yl]-2-fluorophenyl}(methyl)amino]ethoxy}cholan-24-oic acid] were, in that order, 2 nM and 4.5 nM.
As for `CC#C[C@]1(O)[C@H](C)C[C@H]2[C@@H]3CCC4=CC(=O)CCC4=C3[C@@H](c3ccc(N(C)CCO[C@H]4CC[C@@]5(C)[C@@H](C4)C[C@@H](O)[C@@H]4[C@@H]5C[C@H](O)[C@]5(C)[C@@H]([C@H](C)CCC(=O)O)CC[C@@H]45)cc3)C[C@@]21C` [Example 4, (3β,5β,7α,12α)-7,12-Dihydroxy-3-{2-[{4-[17β-hydroxy-16α-methyl-3-oxo17α-prop-1-ynylestra-4,9-dien-11β-yl]phenyl}(methyl)amino]ethoxy}cholan-24-oic acid], the half-maximal inhibitory concentration (IC50) was 3.3 nM in data set [2] (3(H)-dex displacement, hGR extract from Sf9 cells, read-out: GR Binding (IC50)) and 1.6 nM in data set [4].
In the case of `CC#C[C@]1(O)CC[C@H]2[C@@H]3CCC4=CC(=O)CCC4=C3[C@@H](c3ccc(N(C)C)cc3)C[C@@]21C` [RU-38486], in data set [1] (setting [8]), the “block of agonist effect on TAT induction” value was “completely blocks”, the “block of lymphopenic response produced by prednisolone” value is on record as “ability to block” and the “suppression of prednisolone-induced deposition of hepatic glycogen” value is “completely suppressed”. For the same compound, the inhibition at 100 mg/kg in data set [1] (setting [5]) turned out to be 74%. Moreover, the inhibition at 100 mg/kg in data set [1] (setting [6]) amounted to 108%. In addition, in data set [1] (setting [7]), the inhibition at 100 mg/kg was determined as 100%. Besides, in data set [1] (setting [9]), the “block of hepatic glucocorticoid responses to prednisolone (TAT, glycogen)” value is reported as “completely antagonizes” and the “effect on systemic (peripheral) glucocorticoid response to prednisolone” value is given as “completely antagonizes”. Besides, in data set [3] (setting [10]), the “ACTH level compared to vehicle controls” value is on record as “significantly increases” and the “corticosterone level compared to vehicle controls” value is given as “significantly increases”. In data set [3], the “circulating level of ACTH” value is listed as “increases” and the “circulating level of corticosterone” value was “increases”.
For the compound `C[C@]12C=CC(=O)C=C1CC[C@@H]1[C@@H]2[C@@H](O)C[C@@]2(C)[C@H]1CC[C@]2(O)C(=O)CO` [prednisolone], the circulating lymphocyte levels entry in data set [1] (10 mpk prednisolone, normal rats) is “decrease”. In data set [1] (setting [11]), the “increase in the deposition of hepatic glycogen” value is roughly 60% and the “induction of tyrosine aminotransferase (TAT)” value was 3 fold.
